Biological target: brain NOP receptors (hypothalamus vs striatum) (Rattus norvegicus, UniProt P35370)
Test: Ligand brain uptake in rat, ex vivo LC-MS/MS
Conditions: 3 μg/kg i.v., non-anesthetized, 10 min stated for (S)-10a

brain NOP receptors (hypothalamus vs striatum), sequence (P35370 whole entry): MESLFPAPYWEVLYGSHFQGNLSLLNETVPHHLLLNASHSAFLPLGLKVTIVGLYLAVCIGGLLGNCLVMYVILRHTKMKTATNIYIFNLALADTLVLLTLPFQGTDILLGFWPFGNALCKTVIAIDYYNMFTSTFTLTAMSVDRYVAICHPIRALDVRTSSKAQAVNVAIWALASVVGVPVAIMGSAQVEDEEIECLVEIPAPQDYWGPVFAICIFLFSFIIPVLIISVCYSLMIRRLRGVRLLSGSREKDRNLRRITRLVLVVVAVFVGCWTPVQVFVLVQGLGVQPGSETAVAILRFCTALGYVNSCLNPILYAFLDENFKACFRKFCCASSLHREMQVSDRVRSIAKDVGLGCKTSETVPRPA

Row | Compound | brain uptake
1 | CC(C)N(C)C(=O)[C@@H](Cc1ccccc1F)CN1CCC2(CC1)OCCc1cc(F)sc12 [(S)-10a, (2S)-2-[(2-Fluorophenyl)methyl]-3-(2-fluorospiro[4,5-dihydrothieno[2,3-c]pyran-7,4'-piperidine]-1'-yl)-N-isopropyl-N-methyl-propanamide] | 453 % SUV
2 | CNC(=O)[C@@H](Cc1ccccc1Cl)CN1CCC2(CC1)OCCc1cc(F)sc12 [(S)-10b, (2S)-2-[(2-Chlorophenyl)methyl]-3-(2-fluorospiro[4,5-dihydrothieno[2,3-c]pyran-7,4'-piperidine]-1'-yl)-N-methyl-propanamide] | ~ 280 % SUV
3 | CNC(=O)[C@@H](Cc1ccccc1F)CN1CCC2(CC1)OCCc1cc(F)sc12 [(S)-10c, (2S)-2-[(2-Fluorophenyl)methyl]-3-(2-fluorospiro[4,5-dihydrothieno[2,3-c]pyran-7,4'-piperidine]-1'-yl)-N-methyl-propanamide] | ~ 280 % SUV

Reference: paper PMC3081360 (Journal of medicinal chemistry, 2011)
